Measurements as given in ChEMBL document CHEMBL1201862, “PubChem BioAssay data set” (2004).
The source made the active and inactive calls.

Columns and labels:
Format in all cases: functional
Caspase-3 = biological target: T1, Caspase-3 (Homo sapiens, UniProt P42574);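 further: Dose-response selectivity test against caspase-3 for candidate inhibitors of sentrin-specific proteases (SENPs)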
T1 sequence (P42574 whole entry): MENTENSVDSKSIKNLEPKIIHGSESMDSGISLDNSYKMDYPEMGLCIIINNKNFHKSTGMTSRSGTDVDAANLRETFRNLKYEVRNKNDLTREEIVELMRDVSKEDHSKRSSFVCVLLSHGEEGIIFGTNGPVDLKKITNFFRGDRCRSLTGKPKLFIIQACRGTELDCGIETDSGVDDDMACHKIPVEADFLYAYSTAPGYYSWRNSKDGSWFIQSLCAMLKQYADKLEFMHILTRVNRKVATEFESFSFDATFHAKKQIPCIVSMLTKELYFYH

[1] = biological target: T2, Sentrin-specific protease 7 (Homo sapiens, UniProt Q9BQF6);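 further: Luminescence-based dose-response confirmation of ultra-high-throughput screening hits, measuring inhibition of SENP7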
T2 sequence (Q9BQF6 whole entry): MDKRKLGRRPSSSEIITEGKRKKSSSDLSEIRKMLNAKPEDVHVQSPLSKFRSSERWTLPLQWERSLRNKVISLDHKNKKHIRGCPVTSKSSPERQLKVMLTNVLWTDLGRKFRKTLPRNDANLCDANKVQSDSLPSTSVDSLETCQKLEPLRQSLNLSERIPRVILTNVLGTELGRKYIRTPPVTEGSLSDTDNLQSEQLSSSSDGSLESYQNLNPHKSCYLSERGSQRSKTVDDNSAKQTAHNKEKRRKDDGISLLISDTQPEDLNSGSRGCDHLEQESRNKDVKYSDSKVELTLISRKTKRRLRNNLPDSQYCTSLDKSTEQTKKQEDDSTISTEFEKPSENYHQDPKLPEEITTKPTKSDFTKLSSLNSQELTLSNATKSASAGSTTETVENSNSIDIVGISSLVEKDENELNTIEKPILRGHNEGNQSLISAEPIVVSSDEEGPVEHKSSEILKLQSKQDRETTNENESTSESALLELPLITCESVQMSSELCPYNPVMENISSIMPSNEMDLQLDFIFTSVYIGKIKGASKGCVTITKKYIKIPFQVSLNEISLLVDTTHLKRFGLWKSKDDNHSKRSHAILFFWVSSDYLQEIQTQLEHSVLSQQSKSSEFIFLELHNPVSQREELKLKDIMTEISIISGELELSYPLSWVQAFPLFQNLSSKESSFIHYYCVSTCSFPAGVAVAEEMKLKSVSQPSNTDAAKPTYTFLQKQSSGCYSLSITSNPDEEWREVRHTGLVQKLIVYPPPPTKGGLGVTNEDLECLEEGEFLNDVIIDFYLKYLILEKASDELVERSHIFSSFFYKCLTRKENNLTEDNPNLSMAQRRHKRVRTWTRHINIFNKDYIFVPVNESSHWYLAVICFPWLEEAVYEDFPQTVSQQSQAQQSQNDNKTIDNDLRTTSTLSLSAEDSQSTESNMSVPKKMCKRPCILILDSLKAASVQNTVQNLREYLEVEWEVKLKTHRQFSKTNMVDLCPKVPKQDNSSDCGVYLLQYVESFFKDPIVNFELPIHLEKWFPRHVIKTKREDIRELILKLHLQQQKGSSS

[2] = biological target: T3, Sentrin-specific protease 6 (Homo sapiens, UniProt Q9GZR1);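 further: Luminescence-based dose-response confirmatory assay of SENP6 inhibition, following up an ultra-high-throughput screen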
T3 sequence (Q9GZR1 whole entry): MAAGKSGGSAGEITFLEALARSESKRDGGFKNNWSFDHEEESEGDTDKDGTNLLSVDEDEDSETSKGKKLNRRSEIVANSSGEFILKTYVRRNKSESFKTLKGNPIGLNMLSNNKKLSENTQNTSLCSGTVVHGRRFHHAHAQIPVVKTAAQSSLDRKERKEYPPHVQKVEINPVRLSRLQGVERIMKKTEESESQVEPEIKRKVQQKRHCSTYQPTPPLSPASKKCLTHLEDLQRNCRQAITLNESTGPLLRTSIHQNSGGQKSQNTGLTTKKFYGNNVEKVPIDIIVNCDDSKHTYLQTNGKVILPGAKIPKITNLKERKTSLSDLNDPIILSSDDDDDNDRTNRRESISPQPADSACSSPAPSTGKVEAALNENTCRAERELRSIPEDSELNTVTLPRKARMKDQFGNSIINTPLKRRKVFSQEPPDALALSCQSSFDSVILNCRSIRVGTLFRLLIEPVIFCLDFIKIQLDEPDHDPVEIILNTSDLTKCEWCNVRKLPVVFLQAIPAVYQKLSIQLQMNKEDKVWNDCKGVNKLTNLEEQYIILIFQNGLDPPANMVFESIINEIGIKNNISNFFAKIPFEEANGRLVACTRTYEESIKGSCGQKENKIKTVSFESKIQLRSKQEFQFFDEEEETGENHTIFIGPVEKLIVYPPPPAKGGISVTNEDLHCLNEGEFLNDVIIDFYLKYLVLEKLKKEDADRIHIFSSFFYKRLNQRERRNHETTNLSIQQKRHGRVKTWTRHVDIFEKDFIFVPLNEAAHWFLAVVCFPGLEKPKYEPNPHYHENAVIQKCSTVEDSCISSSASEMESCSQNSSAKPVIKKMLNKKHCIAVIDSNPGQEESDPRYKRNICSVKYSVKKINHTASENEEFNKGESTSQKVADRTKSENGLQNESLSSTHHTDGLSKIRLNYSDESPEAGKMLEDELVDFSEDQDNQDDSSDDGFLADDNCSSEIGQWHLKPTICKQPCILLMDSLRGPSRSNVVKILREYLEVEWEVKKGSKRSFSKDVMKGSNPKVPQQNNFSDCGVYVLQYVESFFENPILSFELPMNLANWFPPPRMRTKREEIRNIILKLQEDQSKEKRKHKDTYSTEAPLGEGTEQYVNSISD

[3] = biological target: T4, Sentrin-specific protease 8 (Homo sapiens, UniProt Q96LD8);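 further: luminescence read-out of SENP8 inhibition, dose-response confirmation following an ultra-high-throughput screen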
T4 sequence (Q96LD8 whole entry): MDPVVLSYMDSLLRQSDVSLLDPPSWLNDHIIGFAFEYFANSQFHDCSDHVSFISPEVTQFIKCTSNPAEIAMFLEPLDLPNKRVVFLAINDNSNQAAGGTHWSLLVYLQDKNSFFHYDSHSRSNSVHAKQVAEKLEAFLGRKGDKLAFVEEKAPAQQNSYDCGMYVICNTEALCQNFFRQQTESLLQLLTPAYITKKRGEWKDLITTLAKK

[4] = biological target: T5, High affinity choline transporter 1 (Homo sapiens, UniProt Q9GZV3); test: human choline transporter blockers, potency – cell-based, 5-point CRC, membrane potential dye, dose response (AID 504840)
T5 sequence (Q9GZV3 whole entry): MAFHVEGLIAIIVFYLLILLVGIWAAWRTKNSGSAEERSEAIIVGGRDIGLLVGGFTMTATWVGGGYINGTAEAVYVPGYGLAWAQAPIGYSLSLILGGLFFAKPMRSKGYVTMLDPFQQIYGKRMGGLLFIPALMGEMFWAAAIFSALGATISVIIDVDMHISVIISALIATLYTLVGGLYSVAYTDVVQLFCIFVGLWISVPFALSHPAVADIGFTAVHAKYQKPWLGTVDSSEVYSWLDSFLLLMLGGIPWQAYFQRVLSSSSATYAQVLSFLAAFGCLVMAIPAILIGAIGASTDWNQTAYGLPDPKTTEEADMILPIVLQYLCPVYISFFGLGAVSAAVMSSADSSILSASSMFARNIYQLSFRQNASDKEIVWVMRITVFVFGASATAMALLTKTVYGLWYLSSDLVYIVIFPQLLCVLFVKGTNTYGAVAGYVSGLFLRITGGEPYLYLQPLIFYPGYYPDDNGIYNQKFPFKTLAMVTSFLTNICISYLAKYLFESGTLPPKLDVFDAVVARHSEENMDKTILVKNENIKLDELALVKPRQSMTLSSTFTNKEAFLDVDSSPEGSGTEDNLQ

[5] = biological target: T5, High affinity choline transporter 1; test: human choline transporter blockers, potency – cell-based, 10-point CRC, membrane potential dye, dose response (AID 588401);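 further: membrane potential dye fluorescence of choline-evoked depolarization via CHT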
CHO-K1 = test: (§1) Counterscreen for antagonists of the orexin 1 receptor (OX1R; HCRTR1): Homogeneous time resolved fluorescence (HTRF)-based cell-based dose response assay to identify antagonists of the parental CHO-K1 cell line. [Related pubchem assays (depositor defined):AID434989, AID435008, AID463079, AID485270, AID492963, AID492964, AID492965, AID493232, AID504699, AID504701]; conditions: Cricetulus griseus
[6] = Luminescence Cell-Based Dose Retest to Confirm Inhibitors of Cancer Stem Cells. [Related pubchem assays (depositor defined):AID2717, AID2721]; conditions: Homo sapiens
[7] = biological target: T6, Ubiquitin-conjugating enzyme E2 N (Homo sapiens, UniProt P61088);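 further: Dose-response confirmation in a TR-FRET assay detecting UBC13-driven polyubiquitin chain formation, inhibition measured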
T6 sequence (P61088 whole entry): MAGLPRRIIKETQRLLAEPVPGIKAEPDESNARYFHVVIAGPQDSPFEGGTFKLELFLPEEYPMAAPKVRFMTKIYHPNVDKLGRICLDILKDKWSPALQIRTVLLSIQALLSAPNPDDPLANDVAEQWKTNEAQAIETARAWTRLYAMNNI

[8] = as §1, with “Fluorescence-based” for “Homogeneous time resolved fluorescence (HTRF)-based”, “cell-based high throughput” for “cell-based”, “CHO” for “CHO-K1”
[9] = biological target: T7, Orexin/Hypocretin receptor type 1 (Homo sapiens, UniProt O43613); test: Homogeneous Time Resolved Fluorescence (HTRF)-based cell-based high throughput dose response assay for antagonists of the orexin 1 receptor (OX1R; HCRTR1). [Related pubchem assays (depositor defined):AID434989, AID435008, AID463079, AID485270, AID492963, AID492964, AID492965, AID493232, AID504717, AID504718]
T7 sequence (O43613 whole entry): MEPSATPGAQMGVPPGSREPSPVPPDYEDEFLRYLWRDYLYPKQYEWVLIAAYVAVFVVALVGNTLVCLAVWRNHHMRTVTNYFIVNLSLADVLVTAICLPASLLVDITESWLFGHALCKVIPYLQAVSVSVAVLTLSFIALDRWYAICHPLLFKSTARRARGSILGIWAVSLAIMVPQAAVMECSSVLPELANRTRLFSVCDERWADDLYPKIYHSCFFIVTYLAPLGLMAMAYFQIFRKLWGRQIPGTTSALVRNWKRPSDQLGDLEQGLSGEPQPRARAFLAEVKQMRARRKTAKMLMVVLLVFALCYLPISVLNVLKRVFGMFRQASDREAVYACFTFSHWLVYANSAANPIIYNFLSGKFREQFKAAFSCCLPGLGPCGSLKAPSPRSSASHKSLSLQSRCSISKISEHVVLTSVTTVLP

[10] = biological target: T7, Orexin/Hypocretin receptor type 1; test: Fluorescence-based cell-based high throughput dose response assay for antagonists of the orexin 1 receptor (OX1R; HCRTR1). [Related pubchem assays (depositor defined):AID434989, AID435008, AID463079, AID485270, AID492963, AID492964, AID492965, AID493232, AID504717, AID504718]
[11] = biological target: Multidrug resistance protein CDR1 (Candida albicans, UniProt P43071); test: Candida albicans Cdr1 pump inhibition curves – singleplex, Cherry Pick2 set, dose response (AID 623996); conditions: read-out: EC50_MICROM
Multidrug resistance protein CDR1, sequence (P43071 whole entry, looked up): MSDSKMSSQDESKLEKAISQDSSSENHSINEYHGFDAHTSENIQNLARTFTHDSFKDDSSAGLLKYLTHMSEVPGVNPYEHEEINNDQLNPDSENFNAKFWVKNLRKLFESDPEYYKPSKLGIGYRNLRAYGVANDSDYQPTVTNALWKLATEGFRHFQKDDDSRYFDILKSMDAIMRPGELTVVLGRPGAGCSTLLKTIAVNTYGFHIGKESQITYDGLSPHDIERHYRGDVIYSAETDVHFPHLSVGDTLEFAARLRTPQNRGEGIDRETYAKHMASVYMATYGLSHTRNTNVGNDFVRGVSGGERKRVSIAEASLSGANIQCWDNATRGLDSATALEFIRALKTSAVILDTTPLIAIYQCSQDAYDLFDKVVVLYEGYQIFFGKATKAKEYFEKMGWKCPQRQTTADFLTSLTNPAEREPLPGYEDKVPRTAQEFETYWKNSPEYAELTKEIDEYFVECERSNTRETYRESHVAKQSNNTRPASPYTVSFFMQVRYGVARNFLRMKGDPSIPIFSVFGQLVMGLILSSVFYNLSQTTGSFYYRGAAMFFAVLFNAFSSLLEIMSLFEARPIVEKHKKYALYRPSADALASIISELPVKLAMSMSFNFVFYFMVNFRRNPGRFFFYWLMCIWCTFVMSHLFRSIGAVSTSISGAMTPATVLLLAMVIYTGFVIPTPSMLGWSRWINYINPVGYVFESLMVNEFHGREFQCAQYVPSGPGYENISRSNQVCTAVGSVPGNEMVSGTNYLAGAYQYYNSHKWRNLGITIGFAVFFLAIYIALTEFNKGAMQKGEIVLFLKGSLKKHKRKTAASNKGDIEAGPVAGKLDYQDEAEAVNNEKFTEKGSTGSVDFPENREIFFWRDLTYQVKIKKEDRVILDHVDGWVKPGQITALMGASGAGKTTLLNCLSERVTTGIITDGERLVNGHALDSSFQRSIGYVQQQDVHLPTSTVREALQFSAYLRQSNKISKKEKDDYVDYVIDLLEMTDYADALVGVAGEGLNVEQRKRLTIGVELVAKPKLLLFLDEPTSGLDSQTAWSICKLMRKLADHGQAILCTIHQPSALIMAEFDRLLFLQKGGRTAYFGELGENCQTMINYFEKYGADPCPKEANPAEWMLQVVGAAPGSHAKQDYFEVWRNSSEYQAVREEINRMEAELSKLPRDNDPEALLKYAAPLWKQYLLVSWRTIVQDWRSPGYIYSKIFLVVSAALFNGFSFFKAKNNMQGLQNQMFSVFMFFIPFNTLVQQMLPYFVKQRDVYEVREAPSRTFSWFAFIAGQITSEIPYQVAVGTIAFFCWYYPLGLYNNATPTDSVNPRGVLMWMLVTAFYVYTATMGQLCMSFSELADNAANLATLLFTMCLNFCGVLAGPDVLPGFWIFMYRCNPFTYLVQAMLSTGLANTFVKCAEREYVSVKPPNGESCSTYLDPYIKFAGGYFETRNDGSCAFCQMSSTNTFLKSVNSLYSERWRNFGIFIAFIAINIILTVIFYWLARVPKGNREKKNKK

[12] = biological target: Multidrug resistance protein CDR2 (Candida albicans (strain SC5314 / ATCC MYA-2876) (Yeast), UniProt P78595); test: blockers of Nile Red efflux by Candida CDR2 – S. cerevisiae AD1-8u, singleplex, Cherry Pick2 set, dose response (AID 623994); conditions: read-out: EC50_MICROM
Multidrug resistance protein CDR2, sequence (P78595 whole entry): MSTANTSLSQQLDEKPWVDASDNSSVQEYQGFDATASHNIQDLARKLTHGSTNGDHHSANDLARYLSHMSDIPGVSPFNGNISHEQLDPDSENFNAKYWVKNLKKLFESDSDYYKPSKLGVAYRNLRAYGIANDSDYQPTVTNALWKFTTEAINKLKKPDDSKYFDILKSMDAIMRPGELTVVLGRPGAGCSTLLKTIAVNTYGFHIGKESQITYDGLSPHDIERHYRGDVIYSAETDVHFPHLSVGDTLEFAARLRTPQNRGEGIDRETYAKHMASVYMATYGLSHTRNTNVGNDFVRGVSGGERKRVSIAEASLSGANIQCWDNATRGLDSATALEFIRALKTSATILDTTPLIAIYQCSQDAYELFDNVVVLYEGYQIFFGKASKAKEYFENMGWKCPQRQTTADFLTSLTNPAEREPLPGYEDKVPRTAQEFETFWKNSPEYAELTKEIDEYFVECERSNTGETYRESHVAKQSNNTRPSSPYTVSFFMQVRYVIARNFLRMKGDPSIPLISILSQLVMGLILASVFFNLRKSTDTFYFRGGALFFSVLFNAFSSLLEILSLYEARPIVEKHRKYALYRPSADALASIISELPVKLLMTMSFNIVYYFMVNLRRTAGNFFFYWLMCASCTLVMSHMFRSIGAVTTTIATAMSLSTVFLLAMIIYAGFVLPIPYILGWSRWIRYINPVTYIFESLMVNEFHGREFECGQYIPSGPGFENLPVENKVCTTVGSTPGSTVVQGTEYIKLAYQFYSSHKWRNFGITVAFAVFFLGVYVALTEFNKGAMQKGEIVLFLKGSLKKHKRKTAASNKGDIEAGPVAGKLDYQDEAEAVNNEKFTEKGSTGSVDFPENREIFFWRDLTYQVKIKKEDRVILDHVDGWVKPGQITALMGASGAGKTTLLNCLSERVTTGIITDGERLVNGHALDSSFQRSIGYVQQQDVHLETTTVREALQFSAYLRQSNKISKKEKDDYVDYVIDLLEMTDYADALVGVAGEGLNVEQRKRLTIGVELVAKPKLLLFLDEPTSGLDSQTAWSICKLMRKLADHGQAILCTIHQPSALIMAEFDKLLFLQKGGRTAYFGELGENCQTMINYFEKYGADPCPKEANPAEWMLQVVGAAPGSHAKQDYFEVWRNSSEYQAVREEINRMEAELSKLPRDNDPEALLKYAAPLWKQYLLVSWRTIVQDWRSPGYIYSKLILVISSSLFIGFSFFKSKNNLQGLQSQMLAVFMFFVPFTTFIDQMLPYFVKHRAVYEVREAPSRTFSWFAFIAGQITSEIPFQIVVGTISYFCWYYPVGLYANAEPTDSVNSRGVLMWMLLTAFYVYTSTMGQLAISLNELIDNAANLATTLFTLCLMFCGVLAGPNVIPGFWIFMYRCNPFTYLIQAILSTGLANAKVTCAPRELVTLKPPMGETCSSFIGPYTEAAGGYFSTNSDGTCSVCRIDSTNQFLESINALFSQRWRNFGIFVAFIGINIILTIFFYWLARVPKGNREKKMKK

[13] = biological target: Benomyl/methotrexate resistance protein (Candida albicans, UniProt P28873); test: Candida albicans Mdr1 pump blockade titration – singleplex, Cherry Pick2 set, dose response (AID 623992); conditions: read-out: EC50_MICROM
Benomyl/methotrexate resistance protein, sequence (P28873 whole entry): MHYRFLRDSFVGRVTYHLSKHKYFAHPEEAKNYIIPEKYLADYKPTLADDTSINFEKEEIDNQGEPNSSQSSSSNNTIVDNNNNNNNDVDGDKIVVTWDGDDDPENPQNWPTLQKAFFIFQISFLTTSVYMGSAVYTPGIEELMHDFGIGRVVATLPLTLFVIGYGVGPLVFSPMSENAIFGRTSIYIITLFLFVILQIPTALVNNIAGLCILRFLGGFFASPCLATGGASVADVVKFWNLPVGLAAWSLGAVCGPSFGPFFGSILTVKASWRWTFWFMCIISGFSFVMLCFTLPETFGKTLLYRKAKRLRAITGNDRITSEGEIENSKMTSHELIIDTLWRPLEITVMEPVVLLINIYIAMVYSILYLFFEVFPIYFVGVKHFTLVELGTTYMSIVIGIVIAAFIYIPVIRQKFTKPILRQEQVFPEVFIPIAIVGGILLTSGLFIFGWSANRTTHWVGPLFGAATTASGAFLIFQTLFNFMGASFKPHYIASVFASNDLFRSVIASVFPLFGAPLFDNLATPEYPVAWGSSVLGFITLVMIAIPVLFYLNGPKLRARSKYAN
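Wherever AC50 is given: cells exposed to compound for roughly 70 hours or longer before luminescence read.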

Structure (SMILES): Cn1c(SCc2ccc(C#N)cc2Cl)nc2ccccc21
- IC50 (Caspase-3): 8.4 µM (active)
- IC50 [1]: 4.57 µM (active)
- IC50 [2]: 10.8 µM (active)
- IC50 [3]: 14.8 µM (active)
- IC50 [4]: 3.99 µM (active)
- IC50 [5]: 3.4 µM (active)

Structure (SMILES): COc1cccc(-c2sc3ccc(OC)cc3c2-c2ccc(OCCN(C)C)cc2)c1
- IC50 (CHO-K1): > 66.2 µM (inactive)
- AC50 [6]: 3.37 µM (active)
- IC50 [7]: > 20 µM (inactive)
- IC50 [8]: 17.5 µM (inactive)
- IC50 [9]: > 66.2 µM (inactive)
- IC50 [10]: 15.8 µM (inactive)
- EC50 [11]: 26.8 µM (active)
- EC50 [12]: 15.2 µM (active)
- EC50 [13]: 32.1 µM (active)
